Measurements taken from patent publication US8124655B2, “Use of LR-90 and LR-102 to overcome insulin resistance” (City of Hope, priority 2007, dated 2012).

Experiments:
[1] = test system: Zucker diabetic fatty rats (ZDF, fa/fa); assay: Metabolic data of ZDF rats treated with LR-90 or LR-102 (Example 2); assay type: in vivo, rat
Procedure: The present Example presents the results of an investigation of the effects of LR-90, an inhibitor of AGE/ALE formation, in male Zucker diabetic fatty rats (ZDF, fa/fa) fed with Purina 5008 diet until 40 weeks of age, and their hetorozygous lean littermates (ZDF fa/+) as non-hyperglycemic controls. LR-90 at 50 mg/L of drinking water was given to a subgroup of ZDF rats after the rats developed spontaneous diabetes at 13 weeks of age. At 40 weeks of age, and before killing the animals, their weight was measured; HbA1c, plasma glucose, insulin, triglycerides, cholesterol, CRP and urinary albumin and creatinine concentrations were measured. After euthanizing all animals, organs such as the kidneys, eyeballs, liver, heart, aortae and pancreas were dissected and subjected to immunohistochemical staining, RT-PCR, Western blotting and microscopy.

[2] = test system: p38 MAPK, p44/42 MAPK, p65 subunit of NF-κB; assay: Renal MAPKs and NF-κB activation by western blot; assay type: in vivo, rat
Procedure: Renal cortical tissues were homogenised in PBS buffer with 1% (vol./vol.) Nonidet P-40, 0.5% (wt/vol.) sodium deoxycholate, 0.1% (wt/vol.) SDS and protease inhibitor mixture (Roche, Indianapolis, Ind., USA). Homogenates were centrifuged for 15 min at 4° C. and at 12,000 rpm and the supernatant fractions collected and stored at −70° C. Nuclear extracts were prepared as described previously. Protein concentrations were measured using the Bio-Rad DC Assay kit. Total RNA was isolated using the RNA-STAT-60 reagent (Tel-Test, Friendswood, Tex., USA). Western blot assay Protein samples (50 μg) were separated on 10 to 20% gradient Tris-glycine Criterion gels (Bio-Rad) and then transferred to nitrocellulose membranes. The membranes were blocked with 5% (wt/vol.) skimmed milk in PBS before incubation with anti-TGF-β1, anti-CTGF, anti-AGER, anti-phospho-p38 MAPK, anti-phospho-p44/42 MAPK and anti-p65 NF-κB antibodies. Immunoreactive proteins were detected by enhanced chemiluminescence (Western Lightning Chemiluminescence Reagent; Perkin-Elmer, Waltham, Mass., USA) using horseradish peroxidase-labelled secondary antibodies. Equal amounts of protein loading were confirmed by restaining the membranes with antibodies against β-actin, p38 MAPK or p44/42 MAPK for cytosolic extracts or with histone H2B for nuclear extracts. Band intensities were quantified using a densitometer (Quantity One, Bio-Rad). Reverse transcriptase-polymerase chain reaction Total RNA (1 μg) was used for the RT reaction using the GeneAmp RNA PCR kit (Applied Biosystems, Foster City, Calif., USA). Total cDNA was then used in PCR reactions containing gene specific primers [Electronic supplementary material (ESM) Table 1] paired with Quantum 18S rRNA internal standards (Ambion, Austin, Tex., USA). Multiplex PCR reactions were performed in a GeneAmp 9700 (Applied Biosystems). […] The densities of amplified products corresponding to specific genes and 18S rRNA were quantified with Quantity One software (Bio-Rad). Results are expressed as the means of the ratios of Tgfb1, Ctgf or Ager band densities to the 18S rRNA band density.

3T3 adipocytes = assay: FFA uptake and glucose uptake in 3T3 adipocytes; assay type: cell-based; conditions: FIG. 14
Excerpt: FIG. 14. Effect of LR-90 on 3T3 adipocytes. Tissue culture data on 3T3 adipocytes, showing free fatty acid (FFA) uptake and glucose uptake improvements upon contact with LR-90.
The present Example, with reference to FIG. 14, provides tissue culture data on 3T3 adipocytes, showing free fatty acid (FFA) uptake and glucose uptake improvements upon contact with LR-90.

[3] = described in U.S. Pat. No. 6,787,566; cited from earlier work
[4] = ZDF rats at 40 weeks of age, Mean ± SEM

Which Plasma glucose ([1]; ZDF rats at 40 weeks of age, drug in drinking water, Mean ± SEM) does the source give for CC(C)(Oc1ccc(NC(=O)Nc2ccc(Cc3ccc(NC(=O)Nc4ccc(OC(C)(C)C(=O)O)cc4)c(Cl)c3)cc2Cl)cc1)C(=O)O [LR-90, methylene bis[4,4′-(2-chlorophenylureidophenoxyisobutyric acid)]] here?
The Plasma glucose was 25 ± 2.3 mM.

And the Cholesterol [1, 4]?
Its Cholesterol is 244 ± 13 mg/dL.

And the HbA1c [1, 4]?
Its HbA1c is 2.89 ± 0.07%.

What about the “Plasma CRP” value [1, 4] of the same compound?
The value was 0.58 ± 0.09 mg/mL.

And the “Plasma insulin, ELISA” value [1, 4]?
The value was 0.64 ± 0.10 ng/mL.

And the “Plasma insulin, RIA” value [1, 4]?
The value was 0.63 ± 0.04 ng/mL.

And the Triglycerides [1, 4]?
Its Triglycerides is 384 ± 51 mg/dL.

And the “Urinary Albumin” value [1, 4]?
The value was 27.8 ± 4.8 mg/24 h.

And the effect on hyperglycemia ([1]; ZDF rats, Example 2)?
Its effect on hyperglycemia is “no effect”.

And the effect on hyperlipidemia ([1]; ZDF rats, Example 2)?
The effect on hyperlipidemia was “significantly reduced”.

What about the “increase in CRP levels” value ([1]; ZDF rats, Example 2) of the same compound?
The value was “attenuated”.

And the “activation of NF-κB (p65 subunit)” value ([2]; kidney nuclear extracts of ZDF rats, p<0.01)?
Its value is “significantly attenuated”.

And the “activation of p44/42 MAPK” value ([2]; renal cortex of ZDF rats, p<0.01)?
Its value is “significantly attenuated”.

And the “activation of p38 MAPK” value ([2]; renal cortex of ZDF rats, p<0.05)?
Its value is “significantly attenuated”.

What about the “free fatty acid (FFA) uptake” value (3T3 adipocytes) of the same compound?
The value was “improvements”.

And the glucose uptake (3T3 adipocytes)?
The glucose uptake was “improvements”.

And the “breaking AGE-protein cross-links” value [3]?
The value was “active”.
